The source of these data is US8987286B2, “Substituted pyrimido[1,2-b]indazoles and their use as modulators of the Pi3K/Akt pathway” (Bayer Intellectual Property GmbH, priority 2010, dated 2015).

Counter-ions that a name gives are not always drawn.

One may read the IC50 as the concentration that gives 50% inhibition.

Akt1, sequence (P31749 whole entry): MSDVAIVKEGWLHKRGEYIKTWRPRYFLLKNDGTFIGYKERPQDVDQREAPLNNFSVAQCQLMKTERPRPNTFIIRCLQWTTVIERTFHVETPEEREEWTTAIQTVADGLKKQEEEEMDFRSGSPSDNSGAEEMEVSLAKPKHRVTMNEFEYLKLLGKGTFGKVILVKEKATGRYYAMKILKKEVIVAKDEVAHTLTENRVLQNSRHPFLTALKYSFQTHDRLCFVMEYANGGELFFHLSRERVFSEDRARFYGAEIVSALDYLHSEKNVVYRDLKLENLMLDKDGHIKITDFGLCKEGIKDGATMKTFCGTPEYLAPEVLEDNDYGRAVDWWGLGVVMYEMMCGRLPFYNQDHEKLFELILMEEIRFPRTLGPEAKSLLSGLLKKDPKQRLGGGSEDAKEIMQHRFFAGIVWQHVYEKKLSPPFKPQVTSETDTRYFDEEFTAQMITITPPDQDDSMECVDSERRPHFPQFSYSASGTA

For the assay, the target named is Akt1 (Homo sapiens (Human), UniProt P31749). Kind of assay: Akt1 kinase assay (Akt1 TR-FRET assay). The format is biochemical. The conditions noted are these: His-tagged human recombinant full-length Akt1, 10 μM ATP, 1 μM peptide substrate. The text has this:
Biological Assay 1.0: Akt1 Kinase Assay
Akt1 inhibitory activity of compounds of the present invention was quantified employing the Akt1 TR-FRET assay as described in the following paragraphs.
His-tagged human recombinant kinase full-length Akt1 expressed in insect cells was purchased form Invitrogen (part number PV 3599). As substrate for the kinase reaction the biotinylated peptide biotin-Ahx-KKLNRTLSFAEPG (C-terminus in amide form) was used which can be purchased e.g. from the company Biosynthan GmbH (Berlin-Buch, Germany).
For the assay 50 nl of a 100 fold concentrated solution of the test compound in DMSO was pipetted into a black low volume 384 well microtiter plate (Greiner Bio-One, Frickenhausen, Germany), 2 μl of a solution of Akt1 in assay buffer [50 mM TRIS/HCl pH 7.5, 5 mM MgCl2, 1 mM dithiothreitol, 0.02% (v/v) Triton X-100 (Sigma)] were added and the mixture was incubated for 15 min at 22° C. to allow pre-binding of the test compounds to the enzyme before the start of the kinase reaction. Then the kinase reaction was started by the addition of 3 μl of a solution of adenosine-tri-phosphate (ATP, 16.7 μM=>final conc. in the 5 μl assay volume is 10 μM) and substrate (1.67 μM=>final conc. in the 5 μl assay volume is 1 μM) in assay buffer and the resulting mixture was incubated for a reaction time of 60 min at 22° C. The concentration of Akt1 in the assay was adjusted depending of the activity of the enzyme lot and was chosen appropriate to have the assay in the linear range, typical enzyme concentrations were in the range of about 0.05 ng/μl (final conc. in the 5 μl assay volume).
The reaction was stopped by the addition of 5 μl of a solution of HTRF detection reagents (200 nM streptavidine-XL665 [Cisbio] and 1.5 nM anti-phosho-Serine antibody [Millipore, cat. #35-001] and 0.75 nM LANCE Eu-W 1024 labeled anti-mouse IgG antibody [Perkin Elmer]) in an aqueous EDTA-solution (100 mM EDTA, 0.1% (w/v) bovine serum albumin in 50 mM HEPES/NaOH pH 7.5).
The resulting mixture was incubated 1 h at 22° C. to allow the binding of the biotinylated phosphorylated peptide to the streptavidine-XL665 and the antibodies. Subsequently the amount of phosphorylated substrate was evaluated by measurement of the resonance energy transfer from the anti-mouse-IgG-Eu-Chelate to the streptavidine-XL665. Therefore, the fluorescence emissions at 620 nm and 665 nm after excitation at 350 nm was measured in a HTRF reader, e.g. a Rubystar (BMG Labtechnologies, Offenburg, Germany) or a Viewlux (Perkin-Elmer). The ratio of the emissions at 665 nm and at […] was taken as the measure for the amount of phosphorylated substrate. The data were normalised (enzyme reaction without inhibitor=0% inhibition, all other assay components but no enzyme=100% inhibition).
Turning to `NC1(c2ccc(-c3nc4c5cc(F)ccc5nn4c(NC4CC4)c3-c3ccccc3)cc2)CCC1` [Example 2, 2-[4-(1-Aminocyclobutyl)phenyl]-N-cyclopropyl-9-fluoro-3-phenylpyrimido[1,2-b]indazol-4-amine], the IC50 came to 528 nM.
Consider `CNc1c(-c2ccccc2)c(-c2ccc(C3(N)CCC3)cc2)nc2c3cc(F)ccc3nn12` [Example 3, 2-[4-(1-Aminocyclobutyl)phenyl]-9-fluoro-N-methyl-3-phenylpyrimido[1,2-b]indazol-4-amine], for which the half-maximal inhibitory concentration (IC50) worked out at 2630 nM.
With `N#Cc1cccc(-c2ccc3c(c2)nn2cc(-c4ccccc4)c(-c4ccc(C5(N)CCC5)cc4)nc32)c1` [Example 4, 3-{2-[4-(1-Aminocyclobutyl)phenyl]-3-phenylpyrimido[1,2-b]indazol-8-yl}-benzonitrile] the figure was 140 nM.
The result for `CS(=O)(=O)c1ccc(-c2ccc3c(c2)nn2cc(-c4ccccc4)c(-c4ccc(C5(N)CCC5)cc4)nc32)cc1` [Example 4.1, 1-{4-[8-(4-Mesylphenyl)-3-phenylpyrimido[1,2-b]indazol-2-yl]-phenyl}cyclobutylamine] reads 59 nM.
The result for `NC1(c2ccc(-c3nc4c5ccc(-c6ccc(F)cc6)cc5nn4cc3-c3ccccc3)cc2)CCC1` [Example 4.2, 1-{4-[8-(4-Fluorophenyl)-3-phenylpyrimido[1,2-b]indazol-2-yl]-phenyl}cyclobutylamine] reads 229 nM; that for `NC1(c2ccc(-c3nc4c5ccc(Br)cc5nn4cc3-c3ccccc3)cc2)CCC1` [Example 4.3, 1-[4-(8-Bromo-3-phenylpyrimido[1,2-b]indazol-2-yl)phenyl]cyclobutylamine hydrochloride], 87 nM; that for `NC1(c2ccc(-c3nc4c5ccc(-c6ccc(F)c(CO)c6)cc5nn4cc3-c3ccccc3)cc2)CCC1` [Example 4.4, 5-{2-[4-(1-Aminocyclobutyl)phenyl]-3-phenylpyrimido[1,2-b]indazol-8-yl}-2-fluorobenzyl alcohol], 43 nM.
For the compound `NC1(c2ccc(-c3nc4c5ccc(-c6ccc(F)c(O)c6)cc5nn4cc3-c3ccccc3)cc2)CCC1` [Example 4.5, 5-{2-[4-(1-Aminocyclobutyl)phenyl]-3-phenylpyrimido[1,2-b]indazol-8-yl}-2-fluorophenol formiate], the IC50 amounted to 35 nM.
The result for `COc1cc(-c2ccc3c(c2)nn2cc(-c4ccccc4)c(-c4ccc(C5(N)CCC5)cc4)nc32)ccc1F` [Example 4.6, 1-{4-[8-(4-Fluoro-3-methoxyphenyl)-3-phenylpyrimido[1,2-b]indazol-2-yl]phenyl}cyclobutylamine] reads 458 nM.
With `CS(=O)(=O)c1cccc(-c2ccc3c(c2)nn2cc(-c4ccccc4)c(-c4ccc(C5(N)CCC5)cc4)nc32)c1` [Example 4.7, 1-{4-[8-(3-Mesylphenyl)-3-phenylpyrimido[1,2-b]indazol-2-yl]phenyl}cyclobutylamine formiate] the figure was 25 nM; with `COC(=O)c1ccc2c(c1)nn1cc(-c3ccccc3)c(-c3ccc(C4(N)CCC4)cc3)nc21` [Example 4.8, 2-[4-(1-Aminocyclobutyl)phenyl]-3-phenylpyrimido[1,2-b]indazole-8-carboxylic acid methyl ester], 111 nM; with `NC(=O)c1cccc(-c2ccc3c(c2)nn2cc(-c4ccccc4)c(-c4ccc(C5(N)CCC5)cc4)nc32)c1` [Example 4.9, 3-{2-[4-(1-Aminocyclobutyl)phenyl]-3-phenylpyrimido[1,2-b]indazol-8-yl}benzamide], 16 nM.
The result for `NC(=O)c1ccc(-c2ccc3c(c2)nn2cc(-c4ccccc4)c(-c4ccc(C5(N)CCC5)cc4)nc32)cc1` [Example 4.10, 4-{2-[4-(1-Aminocyclobutyl)phenyl]-3-phenylpyrimido[1,2-b]indazol-8-yl}benzamide] reads 21 nM; that for `NC1(c2ccc(-c3nc4c5ccc(-c6cn[nH]c6)cc5nn4cc3-c3ccccc3)cc2)CCC1` [Example 4.11, 1-{4-[3-Phenyl-8-(1H-pyrazol-4-yl)pyrimido[1,2-b]indazol-2-yl]-phenyl}cyclobutylamine], 17 nM; that for `NC1(c2ccc(-c3nc4c5ccc(-c6ccc(O)nc6)cc5nn4cc3-c3ccccc3)cc2)CCC1` [Example 4.12, 5-{2-[4-(1-Aminocyclobutyl)phenyl]3-phenylpyrimido[1,2-b]indazol-8-yl}pyridin-2-ol], 14 nM.
Regarding `COC(=O)c1ccc(-c2ccc3c(c2)nn2cc(-c4ccccc4)c(-c4ccc(C5(N)CCC5)cc4)nc32)cn1` [Example 4.13, 5-{2-[4-(1-Aminocyclobutyl)phenyl]-3-phenylpyrimido[1,2-b]indazol-8-yl}pyridine-2-carboxylic acid methyl ester], the IC50 amounted to 23 nM.
With `Cc1ccc(-c2ccc3nn4cc(-c5ccccc5)c(-c5ccc(C6(N)CCC6)cc5)nc4c3c2)cc1` [Example 5.1, 1-[4-(3-Phenyl-9-p-tolylpyrimido[1,2-b]indazol-2-yl)phenyl]cyclobutylamine] the figure was 120 nM; with `COC(=O)c1cccc(-c2ccc3nn4cc(-c5ccccc5)c(-c5ccc(C6(N)CCC6)cc5)nc4c3c2)c1` [Example 5.2, 3-{2-[4-(1-Aminocyclobutyl)phenyl]-3-phenylpyrimido[1,2-b]indazol-9-yl}benzoic acid methyl ester], 130 nM; with `NC1(c2ccc(-c3nc4c5cc(Br)ccc5nn4cc3-c3ccccc3)cc2)CCC1` [Example 6.1, 1-[4-(9-Bromo-3-phenylpyrimido[1,2-b]indazol-2-yl)phenyl]cyclobutylamine], 41 nM.
In the case of `N#Cc1ccc(-c2ccc3nn4cc(-c5ccccc5)c(-c5ccc(C6(N)CCC6)cc5)nc4c3c2)cc1` [Example 6.2, 4-{2-[4-(1-Aminocyclobutyl)phenyl]-3-phenylpyrimido[1,2-b]indazol-9-yl}benzonitrile formiate], the IC50 is 97 nM.
On to `NC1(c2ccc(-c3nc4c5cc(-c6cccc(CO)c6)ccc5nn4cc3-c3ccccc3)cc2)CCC1` [Example 6.3, 3-{2-[4-(1-Aminocyclobutyl)phenyl]-3-phenylpyrimido[1,2-b]indazol-9-yl}benzyl alcohol formiate], for which the IC50 stood at 16 nM.
With `NC1(c2ccc(-c3nc4c5cc(-c6ccc(CO)cc6)ccc5nn4cc3-c3ccccc3)cc2)CCC1` [Example 6.4, 4-{2-[4-(1-Aminocyclobutyl)phenyl]-3-phenylpyrimido[1,2-b]indazol-9-yl}benzyl alcohol formiate] the figure was 18 nM; with `NC1(c2ccc(-c3nc4c5cc(-c6ccc(S(N)(=O)=O)cc6)ccc5nn4cc3-c3ccccc3)cc2)CCC1` [Example 6.5, 4-{2-[4-(1-Aminocyclobutyl)phenyl]-3-phenylpyrimido[1,2-b]indazol-9-yl}benzenesulfonamide formiate], 31 nM; with `NC1(c2ccc(-c3nc4c5cc(-c6ccc(F)c(CO)c6)ccc5nn4cc3-c3ccccc3)cc2)CCC1` [Example 6.6, 5-{2-[4-(1-Aminocyclobutyl)phenyl]-3-phenylpyrimido[1,2-b]indazol-9-yl}-2-fluorobenzyl alcohol], 10 nM.
`NC1(c2ccc(-c3nc4c5cc(-c6cn[nH]c6)ccc5nn4cc3-c3ccccc3)cc2)CCC1` [Example 6.7, 1-{4-[3-Phenyl-9-(1H-pyrazol-4-yl)pyrimido[1,2-b]indazol-2-yl]phenyl}-cyclobutylamine]: the IC50 is 19 nM.
Turning to `NC1(c2ccc(-c3nc4c5cccc(Br)c5nn4cc3-c3ccccc3)cc2)CCC1` [Example 8.1, 1-[4-(7-Bromo-3-phenylpyrimido[1,2-b]indazol-2-yl)phenyl]cyclobutylamine hydrochloride], the IC50 was found to be 170 nM.
The result for `NC1(c2ccc(-c3nc4c5cccc(-c6ccc(F)cc6)c5nn4cc3-c3ccccc3)cc2)CCC1` [Example 8.2, 1-{4-[7-(4-Fluorophenyl)-3-phenylpyrimido[1,2-b]indazol-2-yl]-phenyl}cyclobutylamine] reads 5600 nM.
The result for `NC1(c2ccc(-c3nc4c5cccc(-c6ccc(CO)cc6)c5nn4cc3-c3ccccc3)cc2)CCC1` [Example 8.3, 4-{2-[4-(1-Aminocyclobutyl)phenyl]-3-phenylpyrimido[1,2-b]indazol-7-yl}benzyl alcohol formiate] reads 720 nM.
